# Data: patent publication US11780868B1, “Homoleptic metal coordination complexes as antifungal agents” (King Abdulaziz University, priority 2023, dated 2023)
# Assays:
# [1] = system: C. albicans 4554; test: Broth microdilution MIC/MFC (CLSI M27-A4); format: cell-based, Candida albicans; settings: Candida albicans; C. albicans 4554 (Flz sensitive), 37° C., 24 h; read-out: Median MIC
# Procedure: (§1) In this work, nine strains of C. albicans procured from Charlotte Maxeke Johannesburg Academic Hospital under ethical clearance number M000402 were employed (Table 1). All the C. albicans strains were preserved at −70° C. deep freezer in 50% (v/v) anhydrous glycerol (Sigma-Aldrich St. Louis, MO, U.S.A.). For conducting experiments, cultures were revived in Sabouraud Dextrose broth (SDB; Merck, Germany) at 37° C. and 120 rpm for 24 h. Additionally, the RPMI 1640 medium and MOPS (Sigma-Aldrich, USA) were prepared as described by the Clinical and Laboratory Standards Institute (CLSI).
# (§2) The activity of C1 against Candida species (n=9) was first estimated in terms of minimum inhibitory concentration (MIC) and minimum fungicidal concentration (MFC). […] Briefly, stock solutions of Flz (used as reference; Sigma-Aldrich St. Louis, MO, U.S.A.) and the synthesized compound was prepared in 1% dimethyl sulfoxide (DMSO; Sigma-Aldrich St. Louis, MO, U.S.A.) and the test concentrations were formulated in RPMI 1640-MOPS medium. A two-fold dilution of the compound (1250-0.61 μg/mL) and reference drug (128-0.062 μg/mL) was prepared in 96 well plates which were then seeded with C. albicans inoculum (1×10^6 cells/mL) and incubated at 37° C. for 24 h. In every set of experiments, sterility control, 1% DMSO as negative control and growth control were included. Growth was quantified by reading the optical density at 620 nm in a UV-1800 SHIMADZU spectrophotometer (Shimadzu Corporation, Japan). The MIC was determined as the lowest concentration that inhibited the growth of Candida strains. To determine MFC, each well without visible growth was subcultured onto the SDA plates for 24 hours at 37° C. The lowest concentration killing ≥99.9% of Candida was taken as the MFC value of the test compound.
# [2] = system: C. albicans 4175; test: Broth microdilution MIC/MFC (CLSI M27-A4); format: cell-based, Candida albicans; settings: Candida albicans; C. albicans 4175 (Flz sensitive), 37° C., 24 h; read-out: Median MIC
# Procedure: as §1, §2
# [3] = system: C. albicans 4251; test: Broth microdilution MIC/MFC (CLSI M27-A4); format: cell-based, Candida albicans; settings: Candida albicans; C. albicans 4251 (Flz sensitive), 37° C., 24 h; read-out: Median MIC
# Procedure: as §1, §2
# [4] = system: C. albicans SC5314; test: Broth microdilution MIC/MFC (CLSI M27-A4); format: cell-based, Candida albicans; settings: Candida albicans; C. albicans SC5314 (control), 37° C., 24 h; read-out: Median MIC
# Procedure: as §1, §2
# [5] = system: C. albicans 4180; test: Broth microdilution MIC/MFC (CLSI M27-A4); format: cell-based, Candida albicans; settings: Candida albicans; C. albicans 4180 (Flz sensitive), 37° C., 24 h; read-out: Median MIC
# Procedure: as §1, §2
# [6] = system: C. albicans 4106; test: Broth microdilution MIC/MFC (CLSI M27-A4); format: cell-based, Candida albicans; settings: Candida albicans; C. albicans 4106 (Flz resistant), 37° C., 24 h; read-out: Median MIC
# Procedure: as §1, §2
# [7] = system: C. albicans 4324; test: Broth microdilution MIC/MFC (CLSI M27-A4); format: cell-based, Candida albicans; settings: Candida albicans; C. albicans 4324 (Flz resistant), 37° C., 24 h; read-out: Median MIC
# Procedure: as §1, §2
# [8] = system: C. albicans 4085; test: Broth microdilution MIC/MFC (CLSI M27-A4); format: cell-based, Candida albicans; settings: Candida albicans; C. albicans 4085 (Flz resistant), 37° C., 24 h; read-out: Median MIC
# Procedure: as §1, §2
# [9] = system: C. albicans 5112; test: Broth microdilution MIC/MFC (CLSI M27-A4); format: cell-based, Candida albicans; settings: Candida albicans; C. albicans 5112 (Flz resistant), 37° C., 24 h; read-out: Median MIC
# Procedure: as §1, §2
# [10] = system: C. albicans 4251; test: Cell cycle analysis (Muse cell analyser); format: cell-based, Candida albicans; settings: 10 mM H2O2 positive control; stated for C. albicans without naming a strain
# Procedure: The effect of C1 on the cell cycle of C. albicans 4251 and C. albicans 5112 was determined using Cell Cycle kit MCH100106 in a Guava® Muse® Cell Analyser according to the manufacturer's instructions. The cells of the C. albicans (1×10^6 cells/mL) were exposed to C1 for 4 h at different concentrations (0.5×MIC and 1×MIC). Each sample was rinsed with fresh PBS after exposure, and the pellet was fixed in 1 mL of 70% ice-cold ethanol (Sigma Aldrich Co., USA). The Cell Cycle assay was prepared by mixing the 100 μL of Luminex® Cell Cycle dye and 100 μL of the prewashed fixed cells and incubated in the dark for 30 minutes at room temperature. All samples were analysed by a Guava® Muse® Cell Analyser (Luminex® A DiaSorin Company, USA). During the experiment, both the negative (without treatment) and positive control (10 mM H2O2 treated) were used.
# [11] = system: C. albicans 4251; test: JC-10 mitochondrial membrane potential assay; format: cell-based, Candida albicans; settings: C. albicans 4251, H2O2 treated positive control; negative control 2.65
# Procedure: (§3) To examine the effect of C1 on the induction of cellular apoptosis in C. albicans cells, crucial apoptotic markers were observed. For this purpose, C. albicans 4251 and C. albicans 5112 cells were subjected to protoplast preparation by utilizing a method described previously by Srivastava et al. in 2020 through their research study. […] Later on, the cells were washed and incubated for 10 min at room temperature in protoplast buffer-1 (1M sorbitol, 0.05M tris base, 0.01M MgCl2, 0.03M DTT, pH 7.4). The cells were spun at 1500 rpm for 5 min and the pellet was resuspended in protoplast buffer-2 (1M sorbitol, 0.05M tris base, 0.01M MgCl2, 0.001M DTT, pH 7.4) supplemented with […] enzyme (1 μg/mL) and incubated for 1 h at room temperature. Afterwards, the cell suspension was again centrifuged, and the pellet was resuspended and incubated for 20 min at room temperature in protoplast buffer-3 (1M sorbitol, 0.05M tris base, 0.01M MgCl2, pH 7.4). A final washing (1500 rpm for 5 min) was given to the cells and the pellet consisting of C. albicans protoplasts was resuspended in fresh PBS and was stored at 4° C. until further use. Measurement of mitochondrial membrane potential in C. albicans was carried out and the potential of C1 in destabilising mitochondrial membrane potential (Δψm) in C. albicans was established by JC-10 mitochondrial membrane potential assay kit (Abeam, Cambridge, UK). The experiment was performed according to manufacturer instructions. 90 μL of prepared protoplast of C. albicans 4251 and C. albicans 5112 was added to a 96-well microplate (with black walls and clear bottom), followed by the addition of 50 μL/well of JC-10 dye-loading solution. The microplate was incubated for 1 hour at 37° C. in the dark. This was followed by the addition of 50 μL/well of assay buffer B. The microplate was then immediately centrifuged at 800 rpm for 2 minutes. The fluorescence intensity was monitored at an Ex/Em=490/530 nm (present in apoptotic cells, monomeric form and green fluorescence; represented as X) and 540/590 nm (present in live cells, dye aggregates and red fluorescence; represented as Y) using a SpectraMax® ID3 Multimode Plate Reader (Molecular Devices, LLC., USA). The ratio between the aggregate and monomeric forms was measured to find the change in mitochondrial membrane potential. The mitochondrial membrane depolarization is indicated by decreasing ratio values.
# [12] = system: C. albicans 5112; test: JC-10 mitochondrial membrane potential assay; format: cell-based, Candida albicans; settings: C. albicans 5112, H2O2 treated positive control; negative control 2.92
# Procedure: as §3
# [13] = system: C. albicans 4251; test: Cell count and viability assay (Muse cell analyser); format: cell-based, Candida albicans; settings: C. albicans 4251, hydrogen peroxide 10 mM 1:1 with inoculum, 24 h; untreated 90.9%
# Procedure: (§4) Quantification of Live/Dead C. albicans cells in response to C1 was carried out. The actual count of viable and dead cells of C. albicans by treatment of C1 was monitored by Cell Count and Viability assay kit. An inoculum (1×10^6 cells/mL) of both Flz sensitive (C. albicans 4251) and resistant (C. albicans 5112) C. albicans strains was prepared followed by treatment with various concentrations of C1 (0.5×MIC, 1×MIC and MFC) for 24 h at 37° C. and 150 rpm. For the negative control, only inoculum treated with 1% DMSO was used and for the positive control, hydrogen peroxide (10 mM) was used in a 1:1 ratio with the inoculum. Following incubation, the cells were then washed in PBS and centrifuged at 4000 rpm for 5 minutes at 4° C. and the final pellet was resuspended in PBS. The Cell Count and Viability assay samples were prepared by mixing 190 μL of Luminex Cell Viability Dilution Buffer and 10 μL of the sample in a 1.5 mL Eppendorf tube and incubated in the dark for 5 min at room temperature. All samples were analysed by a Guava® Muse® Cell Analyser (Luminex A DiaSorin Company, USA).
# [14] = system: C. albicans 5112; test: as above; format: cell-based, Candida albicans; settings: C. albicans 5112, hydrogen peroxide 10 mM 1:1 with inoculum, 24 h; untreated 86.8%
# Procedure: as §4
smiles,measurement,setting,value
"Oc1ccc(Br)cc1/C=N/c1ccc2c(c1)OCCO2 [L, (E)-4-bromo-2-{[(2,3-dihydrobenzo[b][1,4]dioxin-6-yl)imino]methyl}phenol]",melting point,,119 °C
"OC(Cn1cncn1)(Cn1cncn1)c1ccc(F)cc1F [Flz, fluconazole, reference compound]",MIC,[1],0.25 µg/mL
same,MIC,[2],0.25 µg/mL
same,MIC,[3],0.5 µg/mL
same,MIC,[4],0.25 µg/mL
same,MIC,[5],0.25 µg/mL
same,MIC,[6],32 µg/mL
same,MIC,[7],32 µg/mL
same,MIC,[8],16 µg/mL
same,MIC,[9],64 µg/mL
"OO [Complex H2O2, hydrogen peroxide, reference compound]",impact on the cell cycle,[10],not much impact
same,average fluorescence ratio JC-10 aggregates/JC-10 monomers,[11],2.5
same,average fluorescence ratio JC-10 aggregates/JC-10 monomers,[12],2.75
same,live cells,[13],19.9%
same,live cells,[14],26.1%
